The test system of assay [1] is c-Kit1 (FAM/TAMRA) (DNA, G4) AGGGAGGGCGCTGGGAGGAGGG
As to the kind of experiment: FRET melting. The note with it: 60 mM potassium cacodylate; pH 7.4; 1 μM compound, 0.2 μM oligonucleotide.

The test system of assay [2] is h-TERT (FAM/TAMRA) (DNA, G4) GGGGGCTGGGCCGGGGACCCGGGAGGGGTCGGGACGGGGCGGGG
Kind of assay: FRET melting. The note with it: 60 mM potassium cacodylate; pH 7.4; 1 μM compound, 0.2 μM oligonucleotide.

The test system of assay [3] is bcl2 (FAM/TAMRA) (DNA, G4) AGGGGCGGGCGCGGGAGGAAGGGGGCGGGAGCGGGGCTG
Kind of assay: FRET melting. The note with it: 60 mM potassium cacodylate; pH 7.4; 1 μM compound, 0.2 μM oligonucleotide.

Assay [4] deals with c-Kit1 (DNA, G4) AGGGAGGGCGCTGGGAGGAGGG
As to the kind of experiment: UV-Vis titration, reciprocal plot (Wolfe). The note with it: K+ 100 mM (KCl); 50 mM Tris-HCl, pH 7.5, 25 °C.

In assay [5] the test system is h-TERT (DNA, G4) GGGGGCTGGGCCGGGGACCCGGGAGGGGTCGGGACGGGGCGGGG
As to the kind of experiment: UV-Vis titration, reciprocal plot (Wolfe). The note with it: K+ 100 mM (KCl); 50 mM Tris-HCl, pH 7.5, 25 °C.

In assay [6] the test system is bcl2 (DNA, G4) AGGGGCGGGCGCGGGAGGAAGGGGGCGGGAGCGGGGCTG
Kind of assay: UV-Vis titration, reciprocal plot (Wolfe). The note with it: K+ 100 mM (KCl); 50 mM Tris-HCl, pH 7.5, 25 °C.

Assay [7] has as its system c-Kit1 (DNA, G4) AGGGAGGGCGCTGGGAGGAGGG
As to the kind of experiment: UV-Vis titration, intrinsic method (Rodger and Nordén). The note with it: K+ 100 mM (KCl); 50 mM Tris-HCl, pH 7.5, 25 °C.

Assay [8] has as its system h-TERT (DNA, G4) GGGGGCTGGGCCGGGGACCCGGGAGGGGTCGGGACGGGGCGGGG
Described as above. The note with it: K+ 100 mM (KCl); 50 mM Tris-HCl, pH 7.5, 25 °C.

Assay [9] has as its system bcl2 (DNA, G4) AGGGGCGGGCGCGGGAGGAAGGGGGCGGGAGCGGGGCTG
The assay is described as above. The note with it: K+ 100 mM (KCl); 50 mM Tris-HCl, pH 7.5, 25 °C.

`CC[N+](CC)(CC)Cc1ccc([O-])c(C=NCCN=Cc2cc(C[N+](CC)(CC)CC)ccc2[O-])c1.[Cu+2]`: the binding entry in assay [1], in assay [2] and in [3] was “yes” throughout.

In the case of `CC[N+](CC)(CC)Cc1ccc([O-])c(C=NCCN=Cc2cc(C[N+](CC)(CC)CC)ccc2[O-])c1.[Ni+2]`, the binding result in assay [1], in assay [2] and in assay [3] was “yes” in each case. Also, the K b entry in assay [4] was “(2.4 ± 0.5) × 10^5 M^–1”; in assay [5], “(1.1 ± 0.1) × 10^5 M^–1”; in assay [6], “(2.0 ± 0.4) × 10^5 M^–1”; in [7] it was “(4.9 ± 0.3) × 10^4 M^–1”; in assay [8] it was “(3.7 ± 0.4) × 10^4 M^–1”; in [9], “(3.4 ± 0.3) × 10^4 M^–1”.
